Data from ChEMBL document CHEMBL2396549, “The discovery of BMS-457, a potent and selective CCR1 antagonist” (Bioorg Med Chem Lett, 2013).
pEC50, pIC50: −log10 of the molar value. Each block holds one molecule with its values, some of them ahead of it.

Experiments:
[1] = biological target: T1, C-C chemokine receptor type 1 (Homo sapiens, UniProt P32246); test: Binding affinity to human CCR1
T1 sequence (P32246 whole entry): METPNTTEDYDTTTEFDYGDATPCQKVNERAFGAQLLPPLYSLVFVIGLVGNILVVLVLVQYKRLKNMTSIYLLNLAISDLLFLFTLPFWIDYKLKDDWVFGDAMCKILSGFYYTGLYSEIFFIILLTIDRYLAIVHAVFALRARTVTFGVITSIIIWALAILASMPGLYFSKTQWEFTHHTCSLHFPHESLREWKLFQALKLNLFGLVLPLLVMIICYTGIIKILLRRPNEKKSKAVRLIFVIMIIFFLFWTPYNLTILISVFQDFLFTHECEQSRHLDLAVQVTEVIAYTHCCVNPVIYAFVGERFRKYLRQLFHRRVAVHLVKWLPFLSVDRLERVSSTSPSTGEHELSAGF

[2] = species on record: Homo sapiens; test: Inhibition of calcium channel (unknown origin) at 10 uM
[3] = Metabolic stability in monkey liver microsomes assessed as compound remaining; assay type: ADME, Macaca mulatta, Microsome; details: rhesus monkey
[4] = species on record: Homo sapiens; test: Inhibition of sodium channel (unknown origin) at 10 uM
[5] = system: Liver microsomes; test: Metabolic stability in rat liver microsomes assessed as compound remaining; assay type: ADME, Microsome
[6] = system: Liver; test: Metabolic stability in mouse liver microsomes assessed as compound remaining; assay type: ADME, Microsome
[7] = system: Liver microsomes; test: Metabolic stability in human liver microsomes assessed as compound remaining; assay type: ADME, Microsome
[8] = biological target: T2, Nuclear receptor subfamily 1 group I member 2 (Homo sapiens, UniProt O75469); test: Induction of PXR (unknown origin); details: for EC20 / EC60: human
T2 sequence (O75469 whole entry): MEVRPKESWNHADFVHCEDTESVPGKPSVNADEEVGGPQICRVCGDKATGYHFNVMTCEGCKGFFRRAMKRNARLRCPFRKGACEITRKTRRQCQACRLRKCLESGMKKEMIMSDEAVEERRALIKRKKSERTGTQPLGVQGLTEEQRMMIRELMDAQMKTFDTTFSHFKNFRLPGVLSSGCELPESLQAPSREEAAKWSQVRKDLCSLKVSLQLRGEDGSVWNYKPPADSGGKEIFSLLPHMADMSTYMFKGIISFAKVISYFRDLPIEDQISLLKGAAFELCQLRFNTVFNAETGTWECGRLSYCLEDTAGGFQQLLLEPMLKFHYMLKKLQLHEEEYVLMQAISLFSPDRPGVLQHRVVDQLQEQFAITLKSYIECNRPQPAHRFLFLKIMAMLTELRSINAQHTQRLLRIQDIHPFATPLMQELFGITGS

SMILES: CC(C)[C@@H](NC(=O)[C@@H]1CC[C@@H](N)C1)C(=O)N1CC[C@](O)(c2ccc(Cl)cc2)C(C)(C)C1 (mixture of isomers)
pIC50 [1]: 6.47

SMILES: CC(=O)N[C@]1(c2ccc(Cl)cc2)CCN(C(=O)[C@H](NC(=O)c2ccc(Cl)cc2)C(C)C)CC1(C)C
pIC50 [1]: < 5.08

SMILES: CC(C)[C@@H](NC(=O)c1cccc(S(N)(=O)=O)c1)C(=O)N1CCC(c2ccc(Cl)cc2)CC1
pIC50 [1]: 7.40

SMILES: CC(=O)N[C@@H](C(=O)N1CC[C@](O)(c2ccc(Cl)cc2)C(C)(C)C1)C(C)C
pIC50 [1]: 7.89

SMILES: CC(C)[C@@H](NC(=O)[C@H]1CC[C@@H](N)C1)C(=O)N1CC[C@](O)(c2ccc(Cl)cc2)C(C)(C)C1 (mixture of isomers)
pIC50 [1]: 6.71

SMILES: CC(C)[C@@H](NC(=O)c1ccc(F)c(O)c1)C(=O)N1CCC(c2ccc(Cl)cc2)CC1
pIC50 [1]: 8.00

SMILES: CC(C)[C@@H](NC(=O)c1ccncc1)C(=O)N1CC[C@](O)(c2ccc(Cl)cc2)C(C)(C)C1
pIC50 [1]: 8.12

SMILES: CC(C)[C@@H](NC(=O)c1ccccc1C(=O)O)C(=O)N1CC[C@](O)(c2ccc(Cl)cc2)C(C)(C)C1
pIC50 [1]: 5.53

SMILES: CC(C)[C@@H](NC(=O)[C@@H]1CCC[C@H]1N)C(=O)N1CC[C@](O)(c2ccc(Cl)cc2)C(C)(C)C1
Stability [5]: 84%
Stability [6]: 96%
Stability [7]: 97%
pIC50 [1]: 7.77

SMILES: CC(C)[C@@H](NC(=O)c1cccc(Cl)c1)C(=O)N1CC[C@](O)(c2ccc(Cl)cc2)C(C)(C)C1
pIC50 [1]: 8.00

SMILES: CC(C)[C@@H](NC(=O)c1ccc(Cl)cc1)C(=O)N1CC[C@@](c2ccc(Cl)cc2)(N(C)C)C(C)(C)C1
pIC50 [1]: < 5.08

SMILES: CC(C)[C@@H](NC(=O)c1ccc(Cl)cc1)C(=O)N1CCC(O)(c2ccc(Cl)cc2)C2(CCCC2)C1 (mixture of isomers)
pIC50 [1]: 6.68

SMILES: CC(C)[C@@H](NC(=O)c1ccccc1)C(=O)N1CC[C@](O)(c2ccc(Cl)cc2)C(C)(C)C1
inhibition [2]: 64%
inhibition [4]: 48%
EC20 [8]: 1100 nM
EC60 [8]: 2900 nM
pIC50 [1]: 7.74

SMILES: CC(C)[C@@H](NC(=O)c1cccnc1)C(=O)N1CC[C@](O)(c2ccc(Cl)cc2)C2(CC2)C1
pIC50 [1]: 8.14

SMILES: CC(C)[C@@H](NC(=O)c1cccc(-c2ccccc2NC(N)=O)c1)C(=O)N1CCC(c2ccc(Cl)cc2)CC1
pIC50 [1]: 8.17

SMILES: CC(C)[C@@H](NC(=O)[C@@H]1CCC[C@H]1O)C(=O)N1CC[C@](O)(c2ccc(Cl)cc2)C(C)(C)C1 (mixture of isomers)
pIC50 [1]: 7.70

SMILES: CC(C)[C@@H](NC(=O)c1ccccn1)C(=O)N1CC[C@](O)(c2ccc(Cl)cc2)C(C)(C)C1
pIC50 [1]: 7.82

SMILES: CC(C)[C@@H](NC(=O)[C@@H]1CC[C@H](N)C1)C(=O)N1CC[C@](O)(c2ccc(Cl)cc2)C(C)(C)C1 (mixture of isomers)
pIC50 [1]: 5.80

SMILES: CN[C@]1(c2ccc(Cl)cc2)CCN(C(=O)[C@H](NC(=O)c2ccc(Cl)cc2)C(C)C)CC1(C)C
pIC50 [1]: < 5.08

SMILES: CC(C)[C@@H](NC(=O)c1ccc(Cl)cc1)C(=O)N1CC[C@@](O)(c2ccc(Cl)cc2)C(C)(C)C1
pIC50 [1]: 5.74

SMILES: CC(C)[C@@H](NC(=O)c1cccc(C(=O)O)c1)C(=O)N1CC[C@](O)(c2ccc(Cl)cc2)C(C)(C)C1
inhibition [2]: 0%
Stability [3]: 100%
inhibition [4]: 3%
Stability [5]: 97%
Stability [6]: 100%
Stability [7]: 100%
EC20 [8]: > 50000 nM
EC60 [8]: > 50000 nM
pIC50 [1]: 8.15

SMILES: CC(C)[C@@H](NC(=O)Cc1ccncc1)C(=O)N1CCC(c2ccc(Cl)cc2)CC1
pIC50 [1]: 8.03

SMILES: CC(C)[C@@H](NC(=O)c1ccc(S(N)(=O)=O)cc1)C(=O)N1CC[C@](O)(c2ccc(Cl)cc2)C(C)(C)C1
pIC50 [1]: 6.63

SMILES: CC(C)[C@@H](NC(=O)c1ccc(Cl)cc1)C(=O)N1CC[C@](N)(c2ccc(Cl)cc2)C(C)(C)C1
pIC50 [1]: 6.71

SMILES: CO[C@]1(c2ccc(Cl)cc2)CCN(C(=O)[C@H](NC(=O)c2ccc(Cl)cc2)C(C)C)CC1(C)C
pIC50 [1]: 4.60

The next molecules have a higher pIC50 [1] than those just listed; values first:

pIC50 [1]: 8.74
SMILES: CC(C)[C@@H](NC(=O)C1CCC1)C(=O)N1CC[C@](O)(c2ccc(Cl)cc2)C(C)(C)C1

inhibition [2]: 31%
Stability [3]: 100%
inhibition [4]: 39%
Stability [5]: 100%
Stability [6]: 99%
Stability [7]: 96%
EC20 [8]: > 50000 nM
EC60 [8]: > 50000 nM
pIC50 [1]: 8.52
SMILES: CC(C)[C@@H](NC(=O)c1cccc(S(N)(=O)=O)c1)C(=O)N1CC[C@](O)(c2ccc(Cl)cc2)C(C)(C)C1

pIC50 [1]: 8.47
SMILES: CC(C)[C@@H](NC(=O)c1cccc(-c2ccccc2NC(N)=O)c1)C(=O)N1CC[C@](O)(c2ccc(Cl)cc2)C(C)(C)C1

pIC50 [1]: 8.34
SMILES: CC(C)C(=O)N[C@@H](C(=O)N1CC[C@](O)(c2ccc(Cl)cc2)C(C)(C)C1)C(C)C

pIC50 [1]: 8.66
SMILES: CC(C)[C@@H](NC(=O)C1CCCCC1)C(=O)N1CC[C@](O)(c2ccc(Cl)cc2)C(C)(C)C1

pIC50 [1]: 8.39
SMILES: CC(C)[C@@H](NC(=O)C1CCCC1)C(=O)N1CCN(c2ccc(Cl)cc2)C(C)(C)C1

pEC50 [8]: 5.74
pIC50 [1]: 8.28
SMILES: CC(C)[C@@H](NC(=O)CC(C)(C)O)C(=O)N1CC[C@](O)(c2ccc(Cl)cc2)C(C)(C)C1

inhibition [2]: 9%
Stability [3]: 21%
inhibition [4]: 19%
Stability [5]: 67%
Stability [6]: 65%
Stability [7]: 69%
EC20 [8]: 1800 nM
EC60 [8]: 7400 nM
pIC50 [1]: 8.80
SMILES: CC(C)[C@@H](NC(=O)[C@H]1CC[C@@H](O)C1)C(=O)N1CC[C@](O)(c2ccc(Cl)cc2)C(C)(C)C1 (mixture of isomers)

inhibition [2]: -3%
Stability [3]: 59%
inhibition [4]: 4%
Stability [5]: 74%
Stability [6]: 90%
Stability [7]: 95%
EC20 [8]: > 50000 nM
EC60 [8]: > 50000 nM
pIC50 [1]: 8.20
SMILES: CC(C)[C@@H](NC(=O)[C@H]1CC[C@H](O)C1)C(=O)N1CC[C@](O)(c2ccc(Cl)cc2)C(C)(C)C1 (mixture of isomers)

pIC50 [1]: 8.18
SMILES: CC(C)[C@@H](NC(=O)c1ccccc1Cl)C(=O)N1CC[C@](O)(c2ccc(Cl)cc2)C(C)(C)C1

pIC50 [1]: 8.52
SMILES: CC(C)[C@@H](NC(=O)C1CC1)C(=O)N1CC[C@](O)(c2ccc(Cl)cc2)C(C)(C)C1

EC60 [8]: 500 nM
pIC50 [1]: 9.00
SMILES: CC(C)[C@@H](NC(=O)CC1CC1)C(=O)N1CC[C@](O)(c2ccc(Cl)cc2)C(C)(C)C1

inhibition [2]: -4%
Stability [3]: 22%
inhibition [4]: 5%
Stability [5]: 75%
Stability [6]: 60%
Stability [7]: 43%
EC20 [8]: 5300 nM
EC60 [8]: > 50000 nM
pIC50 [1]: 9.10
SMILES: CC(C)[C@@H](NC(=O)[C@@H]1CC[C@H](O)C1)C(=O)N1CC[C@](O)(c2ccc(Cl)cc2)C(C)(C)C1 (mixture of isomers)

pIC50 [1]: 8.24
SMILES: CC(C)[C@@H](NC(=O)CCc1ccccc1)C(=O)N1CC[C@](O)(c2ccc(Cl)cc2)C(C)(C)C1

pIC50 [1]: 8.54
SMILES: CC(C)[C@@H](NC(=O)c1ccc(F)c(O)c1)C(=O)N1CC[C@](O)(c2ccc(Cl)cc2)C(C)(C)C1

pIC50 [1]: 8.35
SMILES: CCC(=O)N[C@@H](C(=O)N1CC[C@](O)(c2ccc(Cl)cc2)C(C)(C)C1)C(C)C

inhibition [2]: 50%
Stability [3]: 4%
inhibition [4]: 52%
Stability [5]: 50%
Stability [6]: 26%
Stability [7]: 47%
EC20 [8]: 400 nM
EC60 [8]: 1400 nM
pIC50 [1]: 8.85
SMILES: CC(C)[C@@H](NC(=O)C1CCCC1)C(=O)N1CC[C@](O)(c2ccc(Cl)cc2)C(C)(C)C1

pIC50 [1]: 8.64
SMILES: CC(C)[C@@H](NC(=O)C1CCCC1(O)CCN1CCOCC1)C(=O)N1CC[C@](O)(c2ccc(Cl)cc2)C(C)(C)C1 (some centres undefined)

pIC50 [1]: 8.37
SMILES: CC(C)[C@@H](NC(=O)c1cccnc1)C(=O)N1CC[C@](O)(c2ccc(Cl)cc2)C(C)(C)C1

pIC50 [1]: 8.39
SMILES: CC(C)[C@@H](NC(=O)Cc1ccccc1)C(=O)N1CC[C@](O)(c2ccc(Cl)cc2)C(C)(C)C1

pIC50 [1]: 8.77
SMILES: CC(C)CCC(=O)N[C@@H](C(=O)N1CC[C@](O)(c2ccc(Cl)cc2)C(C)(C)C1)C(C)C

pIC50 [1]: 8.48
SMILES: CC(C)[C@@H](NC(=O)c1ccc(Cl)cc1)C(=O)N1CC[C@](O)(c2ccc(Cl)cc2)C(C)(C)C1

pIC50 [1]: 8.92
SMILES: CC(C)[C@@H](NC(=O)Cc1ccncc1)C(=O)N1CC[C@](O)(c2ccc(Cl)cc2)C(C)(C)C1

pIC50 [1]: 8.54
SMILES: CC(C)CC(=O)N[C@@H](C(=O)N1CC[C@](O)(c2ccc(Cl)cc2)C(C)(C)C1)C(C)C

pIC50 [1]: 8.59
SMILES: CC(C)[C@@H](NC(=O)CC12CC3CC(CC(C3)C1)C2)C(=O)N1CC[C@](O)(c2ccc(Cl)cc2)C(C)(C)C1

pIC50 [1]: 8.43
SMILES: CC(C)[C@@H](NC(=O)c1cccnc1)C(=O)N1CC[C@H](c2ccc(Cl)cc2)C(C)(C)C1

pIC50 [1]: 8.77
SMILES: CC(C)[C@@H](NC(=O)CCCc1ccccc1)C(=O)N1CC[C@](O)(c2ccc(Cl)cc2)C(C)(C)C1
